Source: patent US6156757A, “1,2,3,4-tetrahydro-benzofuro[3,2-C]pyridine derivatives” (Janssen Pharmaceutica N.V., priority 1997, dated 2000)

Assays:
α2 -adrenoceptor = test: Xylazine-induced loss of righting reflex in rats; type: in vivo; details: one hour before xylazine 15 mg/kg i.v., male rats, lowest tested dose at which at least 66% of animals showed no loss of righting reflex
Procedure: This test is based upon the fact that centrally acting α2 -adrenoceptor antagonists reverse the loss of righting reflex induced by an intravenous injection of the α2 agonist xylazine. One hour before injection of xylazine (15 mg/kg, i.v.), male rats (200-250 g) were pretreated with a test compound (er os (p.o.) or subcutaneously (s.c.)) or solvent.

[1] = target: T1, cloned human α2C receptors (Homo sapiens, UniProt P18825); test: In vitro binding affinity for α2C receptors (3H-rauwolscine competition binding); details: at a test concentration of 10^-8 M or less; CHO cell expressing cloned human α2C receptors
T1 construct: expressed in transfected cells; host or cells: CHO cells
T1 sequence (P18825 1-462): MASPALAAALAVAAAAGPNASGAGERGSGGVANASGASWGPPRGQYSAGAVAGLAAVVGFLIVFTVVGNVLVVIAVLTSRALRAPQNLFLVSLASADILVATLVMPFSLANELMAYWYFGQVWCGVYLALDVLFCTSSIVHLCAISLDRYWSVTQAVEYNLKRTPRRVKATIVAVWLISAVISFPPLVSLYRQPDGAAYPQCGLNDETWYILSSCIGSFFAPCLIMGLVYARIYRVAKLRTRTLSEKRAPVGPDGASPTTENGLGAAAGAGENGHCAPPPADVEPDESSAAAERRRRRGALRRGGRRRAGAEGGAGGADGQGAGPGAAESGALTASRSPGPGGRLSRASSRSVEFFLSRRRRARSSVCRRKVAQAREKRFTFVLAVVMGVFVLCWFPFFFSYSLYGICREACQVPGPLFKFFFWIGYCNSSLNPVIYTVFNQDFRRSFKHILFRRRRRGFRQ

[2] = target: T2, cloned human α2A receptors (Homo sapiens, UniProt P08913); test: In vitro binding affinity for α2A receptors (3H-rauwolscine competition binding); details: at a test concentration of 10^-8 M or less; CHO cell expressing cloned human α2A receptors
T2 sequence (P08913 1-465): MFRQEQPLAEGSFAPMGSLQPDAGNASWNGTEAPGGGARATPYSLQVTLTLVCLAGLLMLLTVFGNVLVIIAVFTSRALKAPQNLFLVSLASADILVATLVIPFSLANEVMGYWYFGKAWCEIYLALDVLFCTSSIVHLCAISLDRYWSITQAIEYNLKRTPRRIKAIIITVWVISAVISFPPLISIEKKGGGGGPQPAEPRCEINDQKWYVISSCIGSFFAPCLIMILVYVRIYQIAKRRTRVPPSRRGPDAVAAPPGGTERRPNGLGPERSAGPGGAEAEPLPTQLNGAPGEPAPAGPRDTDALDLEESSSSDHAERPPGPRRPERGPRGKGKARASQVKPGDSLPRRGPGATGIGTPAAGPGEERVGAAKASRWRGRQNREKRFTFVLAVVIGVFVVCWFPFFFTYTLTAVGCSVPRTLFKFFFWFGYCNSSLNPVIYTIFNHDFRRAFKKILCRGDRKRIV
Procedure: The interaction of the compounds of formula (I) with α2 receptors was assessed in in vitro radioligand binding experiments.
In general, a low concentration of a radioligand with a high binding affinity for a particular receptor is incubated with a sample of a tissue preparation enriched in a particular receptor or with a preparation of cells expressing cloned human receptors in a buffered medium. During the incubation, the radioligand binds to the receptor. When equilibrium of binding is reached, the receptor bound radioactivity is separated from the non-bound radioactivity, and the receptor bound activity is counted. The interaction of the test compounds with the receptor is assessed in competition binding experiments. Various concentrations of the test compound are added to the incubation mixture containing the receptor preparation and the radioligand. Binding of the radioligand will be inhibited by the test compound in proportion to its binding affinity and its concentration.
The radioligand used for α2A receptor binding is ^3 H-rauwolscine and the receptor preparation used is the Chinese Hamster Ovary (CHO) cell expressing cloned human α2A receptors.

Row | Compound | LAD in mg/kg (lowest active dose for xylazine antagonism) (α2 -adrenoceptor; s.c.) [mg/kg] | LAD in mg/kg (lowest active dose for xylazine antagonism) (α2 -adrenoceptor; p.o.) [mg/kg] | inhibition at up to 0.01 µM [1] [%] | inhibition [2] [%]
1 | Cc1nc2sccn2c(=O)c1CCN1CCc2oc3ccccc3c2C1 [Compound 1, 6-[[3,4-dihydrobenzofuro[3,2-c]pyridin-2(1H)-yl]ethyl]-7-methyl-5H-thiazolo-[3,2-a]pyrimidin-5-one] | 0.63 |  |  | 
2 | Cc1nc2n(c(=O)c1CCN1CCc3oc4ccccc4c3C1)CCCC2 [Compound 2] |  | 1.25 |  | 
3 | Cc1nc2ccccn2c(=O)c1CCN1CCc2oc3ccccc3c2C1 [Compound 3, 3-[2-[3,4-dihydrobenzofuro[3,2-c]pyridin-2(1H)-yl]ethyl]-2-methyl-4H-pyrido[1,2-a]pyrimidin-4-one] | 0.08 | 0.31 |  | 
4 | Cc1cc2nc(C)c(CCN3CCc4oc5ccccc5c4C3)c(=O)n2o1 [Compound 4] |  | 1.25 |  | 
5 | Cc1nc2scc(C)n2c(=O)c1CCN1CCc2oc3ccccc3c2C1 [Compound 5, 6-[[3,4-dihydrobenzofuro[3,2-c]pyridin-2(lH)-yl]ethyl]-3,7-dimethyl-5H-thiazolo-[3,2-a]pyrimidin-5-one] | 0.63 |  |  | 
6 | Cc1nc2n(c(=O)c1CCN1CCc3oc4ccccc4c3C1)CCS2 [Compound 6] | 0.63 |  |  | 
7 | Cc1nc2n(C)c(C)cn2c(=O)c1CCN1CCc2oc3ccccc3c2C1 [Compound 8] |  |  | > 50 | 
8 | Cc1nc2n(c(=O)c1CCN1CCc3oc4ccccc4c3C1)CCCC2C (stereo not shown) [Compound 13] |  |  | > 50 | 
9 | O=c1c(CCN2CCc3oc4ccccc4c3C2)c(Cc2ccccc2)nc2ccccn12 [Compound 14] |  |  | > 50 | 
10 | Cc1nc2sccn2c(=O)c1CCN1CCc2oc3ccc(F)cc3c2C1 [Compound 16] |  | 10.00 |  | 
11 | Cc1nc2ccccn2c(=O)c1CCN1CCc2oc3ccc(F)cc3c2C1 [Compound 17] | 10.00 | 10.00 |  | > 50
12 | Cc1nc2n(c(=O)c1CCN1CCc3oc4ccc(F)cc4c3C1)CCCC2 [Compound 18] | 10.00 |  |  | > 50
13 | Cc1ccc2oc3c(c2c1)CN(CCc1c(C)nc2sccn2c1=O)CC3 [Compound 19] | 10.00 |  |  | 
14 | Cc1nc2ccccn2c(=O)c1CCN1CCc2oc3c([N+](=O)[O-])cccc3c2C1 [Compound 22] |  | 10.00 |  | 
15 | Cc1nc2ccccn2c(=O)c1CCN1CCc2oc3c(Cl)cccc3c2C1 [Compound 23] | 2.50 |  | > 50 | 
16 | Cc1nc2ccccn2c(=O)c1CCN1CCc2oc3ccc(Cl)cc3c2C1 [Compound 24] |  | 10.00 |  | 
17 | Cc1nc2n(c(=O)c1CCN1CCc3oc4ccccc4c3C1)CCCC2C (stereo not shown) [Compound 25] |  | 10.00 |  | 
18 | Cc1nc2ccccn2c(=O)c1CCCN1CCc2oc3ccccc3c2C1 [Compound 26] | 10.00 |  |  | 
19 | Cc1nc2sccn2c(=O)c1CCCN1CCc2oc3ccccc3c2C1 [Compound 27] | 10.00 |  |  | 

Row | Compound | LAD in mg/kg (lowest active dose for xylazine antagonism) (α2 -adrenoceptor; s.c.) [mg/kg] | LAD in mg/kg (lowest active dose for xylazine antagonism) (α2 -adrenoceptor; p.o.) [mg/kg] | inhibition at up to 0.01 µM [1] [%] | inhibition [2] [%]
20 | Cc1nc2n(c(=O)c1CCN1CCc3oc4ccccc4c3C1)CCCS2 [Compound 28] | 0.63 |  |  | 
21 | O=c1c(CCN2CCc3oc4ccccc4c3C2)c(Cc2ccccc2)nc2ccccn12 [Compound 29] | 10.00 |  |  | 
22 | Cc1nc2ccc(Cl)cn2c(=O)c1CCN1CCc2oc3ccccc3c2C1 [Compound 32] | 0.04 |  |  | 
23 | Cc1ccc2nc(C)c(CCN3CCc4oc5ccccc5c4C3)c(=O)n2c1 [Compound 34, 3-[2-[3,4-dihydrobenzofuro[3,2-c]pyridin-2(1H)-yl]ethyl]-2,7-dimethyl-4H-pyrido-[1,2-a]pyrimidin-4-one] | 0.16 |  | > 50 | > 50
24 | Cc1nc2c(O)cccn2c(=O)c1CCN1CCc2oc3ccccc3c2C1 [Compound 35] | 10.00 |  |  | 
25 | Cc1ccn2c(=O)c(CCN3CCc4oc5ccccc5c4C3)c(C)nc2c1 [Compound 36] | 0.63 |  |  | 
26 | Cc1cc(C)n2c(=O)c(CCN3CCc4oc5ccccc5c4C3)c(C)nc2c1 [Compound 37] | 10.00 |  |  | 
27 | Cc1nc2cccc(C)n2c(=O)c1CCN1CCc2oc3ccccc3c2C1 [Compound 39] | 0.63 |  |  | 
28 | Cc1nc2c(Cl)cc(Cl)cn2c(=O)c1CCN1CCc2oc3ccccc3c2C1 [Compound 40] |  | 10.00 |  | 
29 | c1ccc2sc(NCCCCCN3CCc4oc5ccccc5c4C3)nc2c1 [Compound 48] | 10.00 |  | > 50 | > 50
30 | c1ccc2sc(NCCCN3CCc4oc5ccccc5c4C3)nc2c1 [Compound 49] | 10.00 |  |  | > 50
31 | c1ccc2sc(NCCCCN3CCc4oc5ccccc5c4C3)nc2c1 [Compound 50] | 10.00 |  | > 50 | 
32 | c1ccc2sc(NCCN3CCc4oc5ccccc5c4C3)nc2c1 [Compound 51, N-2-benzothiazole-3,4-dihydrobenzofuro[3,2-c]pyridin-2(1H)-ethanamine (E)-2-butenedioate (1:1)] | 10.00 |  |  | 
33 | CSc1nc(C)c(CCN2CCc3oc4ccccc4c3C2)c(=O)n1C [Compound 55] |  | 10.00 | > 50 | > 50
34 | Cc1ccc(C(=O)N2CCCC(CN3CCc4oc5ccccc5c4C3)C2)cc1 (stereo not shown) [Compound 57] |  | 10.00 |  | 
35 | Cc1ccc(C(=O)N2CCC(CN3CCc4oc5ccccc5c4C3)CC2)cc1 [Compound 58, 4-[(3,4-dihydrobenzofuro[3,2-c]pyridin-2(1H)-yl)methyl]-1-(4-methylbenzoyl)piperidine] |  | 2.50 | > 50 | 
36 | Cn1c(=O)c2c(ncn2CCN2CCc3oc4ccccc4c3C2)n(C)c1=O [Compound 59] | 10.00 |  |  | 
37 | O=c1oc2ccccc2n1CCCN1CCc2oc3ccccc3c2C1 [Compound 60] |  | 10.00 |  | > 50
38 | COc1cccn2c(=O)c(CCN3CCc4oc5ccccc5c4C3)c(C)nc12 [Compound 65, 3-[2-[3,4-dihydrobenzofuro[3,2-c]-pyridin-2(1H)-yl]ethyl]-9-methoxy-2-methyl-4H-pyrido[1,2-a]pyrimidin-4-one] | 0.63 |  | > 50 | > 50
